# Experiments:
# [1] = tested on: IGR37 melanoma cell line (RB-sufficient); assay: scRNA-seq of IGR37 melanoma cell line before and after abemaciclib for 1 week; assay type: cell-based; settings: IGR37, post-treatment with abemaciclib; 10% before treatment
# Procedure: (§1) Applicants performed scRNA-seq on these cell lines before and after treatment with abemaciclib for 1 week (FIG. 41).
# (§2) To test this hypothesis, Applicants studied the effect of abemaciclib on the immune resistance program in melanoma cell lines. […] Applicants profiled each cell line with scRNA-seq before and after treatment with abemaciclib for 1 week (FIGS. 49D-E), analyzing over 23,000 cells in these and follow-up conditions (below).
# (§3) For droplet-based scRNA-seq, experiments were performed on the 10× Genomics Chromium platform, with the Chromium Single Cell 3′ Library & Gel Bead Kit v2 and Chromium Single Cell 3′ Chip kit v2 according to the manufacturer's instructions in the Chromium Single Cell 3′ Reagents Kits V2 User Guide. Briefly, 6,000 cells were re suspended in PBS supplemented with 0.04% BSA and loaded to each channel. The cells were then partitioned into Gel Beads in Emulsion in the GemCode instrument, where cell lysis and barcoded reverse transcription of RNA occurred, followed by amplification, shearing and 5′ adaptor and sample index attachment.
# [2] = tested on: UACC257 melanoma cell line (RB-sufficient); assay: scRNA-seq of UACC257 melanoma cell line before and after abemaciclib for 1 week; assay type: cell-based; settings: UACC257, post treatment with abemaciclib; 10% prior to treatment
# Procedure: as §1, §2, §3
smiles,measurement,setting,value
CCN1CCN(Cc2ccc(Nc3ncc(F)c(-c4cc(F)c5nc(C)n(C(C)C)c5c4)n3)nc2)CC1 [abemaciclib],"cells with exceptionally strong expression of the uICR signature / immune resistance program (""immune resistant"" cells)",[1],2%
same,"cells with exceptionally strong expression of the immune resistance program (""immune resistant"" cells)",[2],1%
